Data taken from patent publication US6555531B1, “Weight promoting composition, method, and product” (Pherin Pharmaceuticals, Inc., priority 1999, dated 2003).
“And” between values parts separate entries of the source, which are not always exact repeats. Identical values can stand only once. “Also recorded” adds a separate entry of the source.

Assays:
[1] = Study CL004: follow-on appetite study; assay type: in vivo, human; settings: one dose every 10 minutes for 6 hours, interim findings
Procedure: Study CL004. Study CL004 was conducted as a follow-on to the surprising appetite results of study CL003, and was designed to provide a more focused investigation of the effects of (17β)19-norpregna-1,3,5(10)-trien-3-ol on appetite. […] Study CL004 was conducted after study CL003 had been completed.

[2] = test system: VNO; experiment: In Vivo Study CL001: electrovomerogram (EVG), autonomic parameters and EEG after VNO stimulation; set-up: species or system human; key to performance summary: EDA / performance summary: α-CA / performance summary: EVG: + indicates a moderate increase in activity; ++ indicates a substantial increase in activity; settings: for EVG, difference from the response to placebo: 200 pg vapor pulse to VNO; for mean peak amplitude of the EVG (electrovomerogram) response: single intranasal dose
Procedure: In Vivo Study CL001. This study was conducted in healthy male and female volunteers each tested with a single dose of (17β)19-norpregna-1,3,5(10)-trien-3-ol. The mean peak amplitude of the EVG (electrovomerogram) response to intranasal administration of (17β)19-norpregna-1,3,5(10)-trien-3-ol, reported as the magnitude of the difference from the response to placebo, was […] (13.9 mV in women and 5.3 mV in men difference from the response to placebo). […] In addition, the peak amplitude of the response in women was greater than that in men. Methods: For VNO stimulation, a 10^−8 M solution of (17β)19-norpregna-1,3,5(10)-trien-3-ol vomeropherin was prepared in propylene glycol (PG). A vapor pulse (duration: 2 seconds) of the vomeropherin was obtained bubbling clean air through the solution (air flow: 3 mL/min.). This delivered an estimated quantity of 200 pg of (17β)19-norpregna-1,3,5(10)-trien-3-ol to the VNO. The control was a pulse of PG alone in vapor form. Processing and analysis of the results was done off-line. The amplitude or frequency of the different parameters was measured. The mean and standard deviation of the mean were obtain for all parameters 5 minutes after stimulation with control, and (17β)19-norpregna-1,3,5(10)-trien-3-ol. The significance of the results was studied using the paired, two-tailed student t-test, and analysis of variance.

[3] = Study CL006: mealtime dosing in metabolic unit, appetite and food intake; assay type: in vivo, human; settings: some participants, dosing with mealtimes, informal analysis of blinded data
From the text: Study CL006. Study CL006 was designed to provide an evaluation of a more clinically meaningful (17β)19-norpregna-1,3,5(10)-trien-3-ol dosing regimen, as well as to provide a more controlled environment in which to evaluate appetite and food intake effects. In this study, subjects received (17β)19-norpregna-1,3,5(10)-trien-3-ol in association with mealtimes, and they remained in a metabolic unit throughout the study.

[4] = test system: VNO cells; experiment: In Vitro Study CL002: inward current in VNO cells; assay type: cell-based, human; settings: for mean peak inward current: 10^−5 M
Procedure: In Vitro Study CL002. This study was conducted using VNO cells that had been collected from healthy male and female volunteers. […] In addition, the magnitude of the response was greater in cells from women than in cells from men.

[5] = test system: gonadotropin secretion; experiment: Study CL003: gonadotropin secretion study in healthy female volunteers; assay type: in vivo, human
Procedure: Study CL003 was designed to investigate possible effects of (17β)19-norpregna-1,3,5(10)-trien-3-ol on gonadotropin secretion in healthy female volunteers. Because gonadotropins typically are secreted in a pulsatile pattern with 4-6 peaks per day, (17β)19-norpregna-1,3,5(10)-trien-3-ol was administered at 10-minute intervals over a 6-hour period. This timing was provided in order to determine whether (17β)19-norpregna-1,3,5(10)-trien-3-ol affected the pattern of pulsatility and/or the magnitude of the gonadotropin release. […] To follow up on these anecdotal reports, the investigators gave the subjects a questionnaire one month after completing their participation in the study to assess this effect of (17β)19-norpregna-1,3,5(10)-trien-3-ol in a systematic fashion.

[6] = Study CL005: food consumption and appetite study; assay type: in vivo, human; settings: same dosing regimen; not after placebo; preliminary data analysis
From the text: Study CL005. Study CL005 was designed to investigate in detail the effects of (17β)19-norpregna-1,3,5(10)-trien-3-ol -on food consumption in studies CL003 and CL004. The (17β)19-norpregna-1,3,5(10)-trien-3-ol dosing regimen was the same as had been used for the previous studies. Food intake and appetite were examined in this study in great detail. Subjects kept records of their appetite, food intake, etc., over a 3-4 month period.

[7] = dosed at 10-minute intervals over 6 hours

CC[C@H]1CC[C@H]2[C@@H]3CCc4cc(O)ccc4[C@H]3CC[C@]12C [(17β)19-norpregna-1,3,5(10)-trien-3-ol]
appetite ([1]; all subjects, not after placebo): increase in appetite for at least one week | body weight [1]: persistent increase in body weight | activity in the VNO ([2]; both female and male subjects): active | EDA compared with placebo ([2]; eight female subjects, 200 pg, p<0.05): increased significantly from placebo; also recorded: increased EDA | Other autonomic parameters and EMG ([2]; female subjects): remained unchanged | performance summary: EDA ([2]; female subjects): + | performance summary: EVG ([2]; female subjects): ++ | performance summary: α-CA ([2]; female subjects): ++ | Respiratory frequency (RF), difference from placebo ([2]; female subjects, 200 pg): +3.0 cycles/min | alpha-cortical activity (α-CA), difference from placebo ([2]; female subjects, 200 pg): +35.8 μV^2/Hz | beta-cortical activity (β-CA), difference from placebo ([2]; female subjects, 200 pg): −2.2 μV^2/Hz | body temperature (BT), difference from placebo ([2]; female subjects, 200 pg): +0.2 °C | cardiac frequency (CF), difference from placebo ([2]; female subjects, 200 pg): 0 beats/min | electromyogram (EMG), difference from placebo ([2]; female subjects, 200 pg): 0 Hz | EVG, difference from the response to placebo ([2]; female subjects): 13.9 mV and 13.8 mV | electrodermal activity (EDA), difference from placebo ([2]; female subjects, 200 pg, 5 minutes after stimulation): +109.4 μS | Alpha rhythm recorded from T4A2 compared with placebo ([2]; female subjects, p<0.05): increased significantly from placebo | beta rhythm in CA2 compared with placebo ([2]; female subjects, p<0.05): decreased beta rhythm | performance summary: EDA ([2]; male subjects): + | performance summary: EVG ([2]; male subjects): + | Body temperature compared with placebo ([2]; male subjects, p<0.05): decreased | alpha rhythm compared with placebo ([2]; male subjects, p<0.05): decreased | Other biological parameters ([2]; males): did not change significantly | EVG, difference from the response to placebo ([2]; men): 5.3 mV | EDA compared with placebo ([2]; men, p<0.05): increased EDA | EVG response compared with placebo ([2]; men, p<0.05): significantly greater than that to placebo; also recorded: significantly different from placebo | mean peak amplitude of the EVG (electrovomerogram) response ([2]; men): 30 mV | BT, difference from placebo ([2]; six male subjects): −1.2 | CF, difference from placebo ([2]; six male subjects): 0 | EDA, difference from placebo ([2]; six male subjects): +79.1 | EMG, difference from placebo ([2]; six male subjects): 0 | EVG, difference from placebo ([2]; six male subjects): +5.3 | RF, difference from placebo ([2]; six male subjects): −1.7 | α-CA, difference from placebo ([2]; six male subjects): −11.7 | EVG response compared with placebo ([2]; women): significantly greater than that to placebo; also recorded: robust mean EVG; also recorded: large EVG | mean peak amplitude of the EVG (electrovomerogram) response ([2]; women): 50 mV | body weight [3]: treatment-related increase | food intake [3]: treatment-related increase | concentration of peak effect (inward current) ([4]; VNO cells): 10^−5 M | concentration at which inward current response was significantly different from the control response ([4]; VNO cells from men and women): ≥ 10^−7 M | response of VNO cells to application ([4]; cells from both men and women, magnitude dose dependent): development of an inward current | mean peak inward current ([4]; cells from men): 55 pA | mean peak inward current ([4]; cells from women): 96 pA | appetite (questionnaire one month after study) ([5]; all subjects): large increase in appetite | gonadotropin secretion [5, 7]: No consistent changes | menstrual cycle pattern or ovulation [5, 7]: no changes | appetite [6]: perceived increase in appetite for at least one week
